Laboratory results taken from US8658791B2, “2-substituted-6-amino-5-alkyl, alkenyl or alkynyl-4-pyrimidinecarboxylic acids and 6-substituted-4-amino-3-alkyl, alkenyl or alkynyl picolinic acids and their use as herbicides” (Dow AgroSciences, LLC, priority 2007, dated 2014).

Key:
Format in all cases: in vivo
[1] = system: wild poinsettia (Euphorbia heterophylla); assay: General postemergence herbicidal activity, EPHHL; settings: Euphorbia heterophylla, post-emergence, 336 h, postemergence spray, visual score after 14 days, 0 = no injury, 100 = complete kill, read-out: Post-emergent Weed Control EPHHL; for pest or weed control at 140 g/ha: 140 g ai/ha; for pest or weed control at 280 g/ha: 280 g ai/ha
Method: (§1) Seeds or nutlets of the desired test plant species were planted in Sun Gro MetroMix® 306 planting mixture, which typically has a pH of 6.0 to 6.8 and an organic matter content of about 30 percent, in plastic pots with a surface area of 103 square centimeters. When required to ensure good germination and healthy plants, a fungicide treatment and/or other chemical or physical treatment was applied. The plants were grown for 7-21 days in a greenhouse with an approximate 15 hour photoperiod which was maintained at about 23-29° C. during the day and 22-28° C. during the night. Nutrients and water were added on a regular basis and supplemental lighting was provided with overhead metal halide 1000-Watt lamps as necessary. The plants were employed for testing when they reached the first or second true leaf stage.
(§2) A weighed amount, determined by the highest rate to be tested, of each test compound was placed in a 25 mL glass vial and was dissolved in 4 mL of a 97:3 v/v (volume/volume) mixture of acetone and dimethyl sulfoxide (DMSO) to obtain concentrated stock solutions. […] The concentrated stock solutions obtained were diluted with 20 mL of an aqueous mixture containing acetone, water, isopropyl alcohol, DMSO, Atplus 411F crop oil concentrate, and Triton® X-155 surfactant in a 48.5:39:10:1.5:1.0:0.02 v/v ratio to obtain spray solutions containing the highest application rates. Additional application rates were obtained by serial dilution of 12 mL of the high rate solution into a solution containing 2 mL of 97:3 v/v (volume/volume) mixture of acetone and dimethyl sulfoxide (DMSO) and 10 mL of an aqueous mixture containing acetone, water, isopropyl alcohol, DMSO, Atplus 411F crop oil concentrate, and Triton X-155 surfactant in a 48.5:39:10:1.5:1.0:0.02 v/v ratio to obtain 1/2X, 1/4X, 1/8X and 1/16X rates of the high rate. Compound requirements are based upon a 12 mL application volume at a rate of 187 L/ha. Formulated compounds were applied to the plant material with an overhead Mandel track sprayer equipped with a 8002E nozzles calibrated to deliver 187 L/ha over an application area of 0.503 square meters at a spray height of 18 inches (43 cm) above the average plant canopy height. Control plants were sprayed in the same manner with the solvent blank.
(§3) The treated plants and control plants were placed in a greenhouse as described above and watered by sub-irrigation to prevent wash-off of the test compounds. After 14 days, the condition of the test plants as compared with that of the untreated plants was determined visually and scored on a scale of 0 to 100 percent where 0 corresponds to no injury and 100 corresponds to complete kill.

[2] = system: lambsquarter (Chenopodium album); assay: General postemergence herbicidal activity, CHEAL; settings: Chenopodium album, post-emergence, 336 h, postemergence spray, visual score after 14 days, 0 = no injury, 100 = complete kill, read-out: Post-emergent Weed Control CHEAL; for pest or weed control at 140 g/ha: 140 g ai/ha; for pest or weed control at 280 g/ha: 280 g ai/ha
Method: as §1, §2, §3

[3] = system: barnyardgrass (Echinochloa crus-galli); assay: General postemergence herbicidal activity, ECHCG; settings: Echinochloa crus-galli, post-emergence, 336 h, postemergence spray, visual score after 14 days, 0 = no injury, 100 = complete kill, read-out: Post-emergent Weed Control ECHCG; for pest or weed control at 140 g/ha: 140 g ai/ha; for pest or weed control at 280 g/ha: 280 g ai/ha
Method: as §1, §2, §3

rice (Oryza sativa) = assay: General postemergence herbicidal activity, ORYSA; settings: Oryza sativa, post-emergence, 336 h, postemergence spray, visual score after 14 days, 0 = no injury, 100 = complete kill, read-out: Post-emergent Weed Control ORYSA; for plant injury at 140 g/ha: 140 g ai/ha; for plant injury at 280 g/ha: 280 g ai/ha
Method: as §1, §2, §3

[4] = system: velvetleaf (Abutilon theophrasti); assay: General postemergence herbicidal activity, ABUTH; settings: Abutilon theophrasti, post-emergence, 336 h, postemergence spray, visual score after 14 days, 0 = no injury, 100 = complete kill, read-out: Post-emergent Weed Control ABUTH; for pest or weed control at 140 g/ha: 140 g ai/ha; for pest or weed control at 280 g/ha: 280 g ai/ha
Method: as §1, §2, §3

| Compound | pest or weed control at 140 g/ha [1] | pest or weed control at 140 g/ha [2] | pest or weed control at 140 g/ha [3] | plant injury at 140 g/ha (rice (Oryza sativa)) | pest or weed control at 140 g/ha [4] | pest or weed control at 280 g/ha [1] | pest or weed control at 280 g/ha [2] | pest or weed control at 280 g/ha [3] | plant injury at 280 g/ha (rice (Oryza sativa)) | pest or weed control at 280 g/ha [4] | further results |
| --- | --- | --- | --- | --- | --- | --- | --- | --- | --- | --- | --- |
| C=C(F)c1c(N)nc(-c2ccc(Cl)c(OC)c2F)nc1C(=O)OC [Compound 9, 6-Amino-2-(4-chloro-2-fluoro-3-methoxyphenyl)-5-(1-fluorovinyl) pyrimidine-4-carboxylic acid methyl ester] | 100% | 95% | 90% | 0% | 90% |  |  |  |  |  |  |
| C=C(OCC)c1c(N)nc(-c2ccc(Cl)c(OC)c2F)nc1C(=O)OC [Compound 10, 6-Amino-2-(4-chloro-2-fluoro-3-methoxyphenyl)-5-(1-ethoxyvinyl)pyrimidine-4-carboxylic acid methyl ester] |  |  |  |  |  | 75% | 40% | 0% | 0% | 50% |  |
| C=Cc1c(N)nc(-c2cc(F)c(Cl)cc2F)nc1C(=O)OC [Compound 12, 6-Amino-2-(4-chloro-2,5-difluorophenyl)-5-vinylpyrimidine-4-carboxylic acid methyl ester] | 50% | 100% | 50% | 0% | 100% |  |  |  |  |  |  |
| C=Cc1c(N)nc(-c2cc(C)c(Cl)cc2F)nc1C(=O)OC [Compound 13, 6-Amino-2-(4-chloro-2-fluoro-5-methylphenyl)-5-vinylpyrimidine-4-carboxylic acid methyl ester] |  |  |  |  |  | 60% | 100% | 0% | 0% | 90% |  |
| C=Cc1c(N)nc(-c2ccc(Cl)c(C(F)F)c2F)nc1C(=O)OC [Compound 15, 6-Amino-2-(4-chloro-3-difluoromethyl-2-fluorophenyl)-5-vinylpyrimidine-4-carboxylic acid methyl ester] | 100% | 100% | 100% | 5% | 100% |  |  |  |  |  |  |
| C=Cc1c(N)nc(-c2ccc(Cl)c(F)c2)nc1C(=O)OC [Compound 16, 6-Amino-2-(4-chloro-3-fluorophenyl)-5-vinylpyrimidine-4-carboxylic acid methyl ester] | 80% | 95% | 0% | 0% | 100% |  |  |  |  |  |  |
| C=Cc1c(N)nc(-c2ccc(Cl)c(OC(F)F)c2F)nc1C(=O)OC [Compound 17, 6-Amino-2-(4-chloro-3-difluoromethoxy-2-fluorophenyl)-5-vinylpyrimidine-4-carboxylic acid methyl ester] |  |  |  |  |  | 100% | 100% | 100% | 0% | 100% |  |
| C=Cc1c(N)nc(-c2ccc(Cl)c(OC)c2Cl)nc1C(=O)OC [Compound 18, 6-Amino-2-(2,4-dichloro-3-methoxyphenyl)-5-vinylpyrimidine-4-carboxylic acid methyl ester] | 40% | 100% | 90% | 0% | 100% |  |  |  |  |  |  |
| C=Cc1c(N)nc(-c2ccc(Cl)c(N(C)C)c2F)nc1C(=O)OC [Compound 19, 6-Amino-2-(4-chloro-3-dimethylamino-2-fluorophenyl)-5-vinylpyrimidine-4-carboxylic acid methyl ester] |  |  |  |  |  | 100% | 100% | 85% | 85% | 100% |  |
| C=Cc1c(N)nc(-c2ccc(Cl)c(C(C)F)c2)nc1C(=O)OC (stereo not drawn) [Compound 20, 6-Amino-2-[4-chloro-3-(1-fluoroethyl)phenyl]-5-vinylpyrimidine-4-carboxylic acid methyl ester] |  |  |  |  |  | 100% | 100% | 70% | 0% | 85% |  |
| C/C=C/c1c(N)nc(-c2ccc(Cl)c(OC)c2F)nc1C(=O)OC [Compound 22, 6-Amino-2-(4-chloro-2-fluoro-3-methoxyphenyl)-5-((E)-propenyl)pyrimidine-4-carboxylic acid methyl ester] |  |  |  |  |  |  |  |  |  |  | pest or weed control at 70 g/ha ([1]; 70 g ai/ha): 100%; pest or weed control at 70 g/ha ([2]; 70 g ai/ha): 95%; pest or weed control at 70 g/ha ([3]; 70 g ai/ha): 95%; plant injury at 70 g/ha (rice (Oryza sativa); 70 g ai/ha): 0%; pest or weed control at 70 g/ha ([4]; 70 g ai/ha): 85% |
| C#Cc1c(N)nc(-c2ccc(Cl)c(OC)c2F)nc1C(=O)OC [Compound 24, 6-Amino-2-(4-chloro-2-fluoro-3-methoxyphenyl)-5-ethynyl-pyrimidine-4-carboxylic acid methyl ester] | 85% | 85% | 70% | 0% | 80% |  |  |  |  |  |  |
| C=Cc1c(N)nc(-c2ccc(Cl)c(F)c2)nc1C(=O)O [Compound 49, 6-Amino-2-(4-chloro-3-fluorophenyl)-5-vinylpyrimidine-4-carboxylic acid] | 100% | 100% |  | 0% | 65% |  |  |  |  |  |  |
| C=Cc1c(C(=O)O)nc(-c2ccc(Cl)cc2)c(F)c1N [Compound 61, 4-Amino-6-(4-chlorophenyl)-5-fluoro-3-vinylpyridine-2-carboxylic acid] | 95% | 100% |  | 50% | 100% |  |  |  |  |  |  |
| C=Cc1c(N)nc(-c2ccc(Cl)c(OC)c2F)nc1C(=O)OCCCC [Compound 62, 6-Amino-2-(4-chloro-2-fluoro-3-methoxyphenyl)-5-vinyl-pyrimidine-4-carboxylic acid butyl ester] | 100% | 100% |  | 25% | 100% |  |  |  |  |  |  |
